From US10137110B2, “1-cyclohexyl-2-phenylaminobenzimidazoles as mIDH1 inhibitors for the treatment of tumors” (Bayer Pharma Aktiengesellschaft, priority 2014, dated 2018)

Experiments:
IDH1 R132H enzyme = IDH1 R132H enzyme (Homo sapiens (Human), UniProt O75874, R132H); experiment: Mutant IDH1 R132H biochemical assay; conditions: NADPH consumption, luminescent readout; 1.5 nM enzyme, 250 μM α-KG, 1 μM NADPH, 30 minutes, 32° C.; test range 0.002-10 μM
Method: mIDH1 catalyzes the NADPH-dependent reduction of alpha-ketoglutarate (α-KG) to (2R)-2-hydroxyglutarate (2-HG). NADPH consumption was measured by luminescent readout.
The biochemical reactions were performed at 32° C. in 384-well plates using a reaction volume of 41 μl and the following assay buffer conditions: 50 mM Tris pH 7.5, 100 mM NaCl, 20 mM MgCl2, 0.05% BSA, 0.01% Brij, 1 μM NADPH, and 250 μM α-KG. […] Test compounds were used in a concentration range between 0.002 and 10 μM. The final DMSO concentration was 2.4%.
The reaction was incubated for 30 minutes, then 40 μl of detection mix (0.75 μg/ml Luciferase, 0.02 U/ml Oxidoreductase, 4 μg/ml FMN, 2 μl/ml Decanal/Ethanol, 50 mM Tris pH 7.5, 0.5% Glycerin, 0.01% Tween-20, 0.05% BSA) was added. Luminescence was measured on a luminescent reader (10 seconds measuring time, 1 second integration period, 30% sensitivity). The decrease in luminescence is proportional to mIDH1 activity. IC50 values are determined by interpolation from plots of relative luminescence versus inhibitor concentration.

[1] = target: mutated isocitrate dehydrogenase (mIDH) protein overexpressed in LN229 R132H cells (Homo sapiens (Human), UniProt O75874, R132H); experiment: Mutant IDH1 cellular assay (2-HG in medium of LN229 R132H cells); assay type: cell-based; conditions: 24 hours, fluorescence readout
mutated isocitrate dehydrogenase (mIDH) protein overexpressed in LN229 R132H cells, sequence (O75874 whole entry R132H): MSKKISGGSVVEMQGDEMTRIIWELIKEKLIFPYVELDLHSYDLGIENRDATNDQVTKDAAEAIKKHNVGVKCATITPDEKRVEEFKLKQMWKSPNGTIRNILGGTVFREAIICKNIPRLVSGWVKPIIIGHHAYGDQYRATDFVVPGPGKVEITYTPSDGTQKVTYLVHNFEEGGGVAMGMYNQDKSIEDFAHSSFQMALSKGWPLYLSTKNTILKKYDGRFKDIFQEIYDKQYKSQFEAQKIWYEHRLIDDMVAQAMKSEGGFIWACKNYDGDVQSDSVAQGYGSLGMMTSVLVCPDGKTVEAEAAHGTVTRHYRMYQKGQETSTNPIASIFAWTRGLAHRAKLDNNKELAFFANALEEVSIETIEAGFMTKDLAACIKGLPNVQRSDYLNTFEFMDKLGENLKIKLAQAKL
Method: Mutant IDH1 Cellular Assay
Levels of (2R)-2-hydroxyglutarate (2HG) were measured in medium of a cell line with overexpression of mutated isocitrate dehydrogenase (mIDH) protein. mIDH catalyzes the NADPH-dependent reduction of alpha-ketoglutarate to 2-HG. Cells (LN229 R132H, Mohrenz et al., Apoptosis (2013) 18:1416-1425) were grown in DMEM containing 10% FCS. They were harvested by trypsin and seeded into 96-well plates. Cells were incubated overnight at 37° C. in 5% CO2. The next day test compounds were added to each cell well. The final concentration of DMSO was 0.1% and DMSO controls were included. The plates were then placed in an incubator for 24 hours.
2-HG was measured according to Balss et al. (Acta Neuropathol (2012) 124: 883-891). Briefly, HClO4 was added to each well and the plates were centrifuged. Aliquots are removed and incubated with hydroxyglutarate dehydrogenase (HGDH), diaphorase, NAD+, and resazurin. The conversion of resazurin to resorufin was detected by fluorescence spectroscopy at Ex 540 nm Em 600 nm. The increase in fluorescence is proportional to 2-HG production. IC50 values are determined by interpolation from plots of relative fluorescence vs inhibitor concentration.

IDH1 R132H enzyme, sequence (O75874 whole entry R132H): as above

Structure (SMILES)	IC50 (IDH1 R132H enzyme) [nM]	IC50 [1] [nM]
Cc1noc(C)c1-c1ccc2c(c1)nc(Nc1ccc(OC(F)(F)F)cc1)n2[C@H]1C[C@@H](C)CC(C)(C)C1 (racemic) [Example 2-1, (±) 5-(3,5-dimethyl-1,2-oxazol-4-yl)-N-[4-(trifluoromethoxy)phenyl]-1-[(cis)-3,3,5-trimethylcyclohexyl]-1H-benzimidazol-2-amine]	120	900
C[C@@H]1C[C@H](n2c(Nc3ccc(OC(F)(F)F)cc3)nc3cc(-c4cccc(C(=O)O)c4)ccc32)CC(C)(C)C1 (racemic) [Example 2-2, (±) 3-(2-{[4-(trifluoromethoxy)phenyl]amino}-1-[(cis)-3,3,5-trimethylcyclohexyl]-1H-benzimidazol-5-yl)benzoic acid]	70	360
C[C@@H]1C[C@H](n2c(Nc3ccc(OC(F)(F)F)cc3)nc3cc(-c4ccc(C(=O)O)cc4)ccc32)CC(C)(C)C1 (racemic) [Example 2-3, (±) 4-(2-{[4-(trifluoromethoxy)phenyl]amino}-1-[(cis)-3,3,5-trimethylcyclohexyl]-1H-benzimidazol-5-yl)benzoic acid]	460	
COC(=O)c1cccc(-c2ccc3c(c2)nc(Nc2ccc(OC(F)(F)F)cc2)n3[C@H]2C[C@@H](C)CC(C)(C)C2)c1 (racemic) [Example 2-15, (±) Methyl 3-(2-{[4-(trifluoromethoxy)phenyl]amino}-1-[(cis)-3,3,5-trimethylcyclohexyl]-1H-benzimidazol-5-yl)benzoate]	1500	
COC(=O)c1ccc(-c2ccc3c(c2)nc(Nc2ccc(OC(F)(F)F)cc2)n3[C@H]2C[C@@H](C)CC(C)(C)C2)cc1 (racemic) [Example 2-18, (±) Methyl 4-(2-{[4-(trifluoromethoxy)phenyl]amino}-1-[(cis)-3,3,5-trimethylcyclohexyl]-1H-benzimidazol-5-yl)benzoate]	4000	
C[C@H]1C[C@H](n2c(Nc3ccc(OC(F)(F)F)cc3)nc3cc(-c4nnn[nH]4)ccc32)CC(C)(C)C1 (racemic) [Example 2-27, (±) 5-(1H-tetrazol-5-yl)-N-[4-(trifluoromethoxy)phenyl]-1-[(trans)-3,3,5-trimethylcyclohexyl]-1H-benzimidazol-2-amine]	1800	
C[C@@H]1C[C@H](n2c(Nc3ccc(OC(F)(F)F)cc3)nc3cc(-c4cc(F)c(O)c(F)c4)ccc32)CC(C)(C)C1 (racemic) [Example 2-33, (±) 2,6-difluoro-4-(2-{[4-(trifluoromethoxy)phenyl]amino}-1-[(cis)-3,3,5-trimethylcyclohexyl]-1H-benzimidazol-5-yl)phenol]	670	
Cc1cc(-c2ccc3c(c2)nc(Nc2ccc(OC(F)(F)F)cc2)n3[C@H]2C[C@@H](C)CC(C)(C)C2)cc(C)c1O (racemic) [Example 2-34, (±) 2,6-dimethyl-4-(2-{[4-(trifluoromethoxy)phenyl]amino}-1-[(cis)-3,3,5-trimethylcyclohexyl]-1H-benzimidazol-5-yl)phenol]	180	
CCOc1noc(C)c1-c1ccc2c(c1)nc(Nc1ccc(OC(F)(F)F)cc1)n2[C@H]1C[C@@H](C)CC(C)(C)C1 (racemic) [Example 2-35, (±) 5-(3-ethoxy-5-methyl-1,2-oxazol-4-yl)-N-[4-(trifluoromethoxy)phenyl]-1-[(cis)-3,3,5-trimethylcyclohexyl]-1H-benzimidazol-2-amine]	240	
Cc1noc(C)c1-c1ccc2c(c1)nc(Nc1ccc(OC(F)(F)F)cc1)n2[C@H]1C[C@@H](C)CC(C)(C)C1 (single isomer, unassigned) [Example 2-1-1, 5-(3,5-dimethyl-1,2-oxazol-4-yl)-N-[4-(trifluoromethoxy)phenyl]-1-[(cis)-3,3,5-trimethylcyclohexyl]-1H-benzimidazol-2-amine]	240	
Cc1noc(C)c1-c1ccc2c(c1)nc(Nc1ccc(OC(F)(F)F)cc1)n2[C@H]1C[C@@H](C)CC(C)(C)C1 (single isomer, unassigned) [Example 2-1-2, 5-(3,5-dimethyl-1,2-oxazol-4-yl)-N-[4-(trifluoromethoxy)phenyl]-1-[(cis)-3,3,5-trimethylcyclohexyl]-1H-benzimidazol-2-amine]	70	
Cc1n[nH]c(C)c1-c1ccc2c(c1)nc(Nc1ccc(OC(F)(F)F)cc1)n2[C@@H]1C[C@H](C)CC(C)(C)C1 (stereo in doubt) [Example 2-5-1]	670	
Cc1n[nH]c(C)c1-c1ccc2c(c1)nc(Nc1ccc(OC(F)(F)F)cc1)n2[C@H]1C[C@@H](C)CC(C)(C)C1 (stereo in doubt) [Example 2-5-2]	1540	1500
Cc1n[nH]c(C)c1-c1ccc2c(c1)nc(Nc1ccc(OC(F)(F)F)cc1)n2[C@@H]1C[C@H](C)CC(C)(C)C1 (stereo in doubt) [Example 2-5]	90	4000
Cc1n[nH]c(C)c1-c1ccc2c(c1)nc(Nc1ccc(SC(F)(F)F)cc1)n2[C@@H]1C[C@H](C)CC(C)(C)C1 (stereo in doubt) [Example 2-10-1]	300	10000
Cc1n[nH]c(C)c1-c1ccc2c(c1)nc(Nc1ccc(SC(F)(F)F)cc1)n2[C@H]1C[C@@H](C)CC(C)(C)C1 (stereo in doubt) [Example 2-10-2]	140	3000
C[C@H]1C[C@@H](n2c(Nc3ccc(OC(F)(F)F)cc3)nc3cc(-c4ccc(C(N)=O)cc4)ccc32)CC(C)(C)C1 (stereo in doubt) [Example 2-17]	440	
Cc1nnc(-c2ccc3c(c2)nc(Nc2ccc(OC(F)(F)F)cc2)n3C2CC(C)(C)CC(C)(C)C2)o1 [Example 2-25, 5-(5-Methyl-1,3,4-oxadiazol-2-yl)-1-(3,3,5,5-tetramethylcyclohexyl)-N-[4-(trifluoromethoxy)phenyl]-1H-benzimidazol-2-amine]	130	

Other lines, results leading:

IC50 (IDH1 R132H enzyme) [nM]	IC50 [1] [nM]	Structure (SMILES)
80	600	C[C@H]1C[C@@H](n2c(Nc3ccc(OC(F)(F)F)cc3)nc3cc(-c4cn[nH]c4)ccc32)CC(C)(C)C1 (stereo in doubt) [Example 2-4]
110	1200	Cc1n[nH]cc1-c1ccc2c(c1)nc(Nc1ccc(OC(F)(F)F)cc1)n2[C@@H]1C[C@H](C)CC(C)(C)C1 (stereo in doubt) [Example 2-7]
130	2000	C[C@H]1C[C@@H](n2c(Nc3ccc(OC(F)(F)F)cc3)nc3cc(-c4ccn[nH]4)ccc32)CC(C)(C)C1 (stereo in doubt) [Example 2-8]
180	2000	C[C@H]1C[C@@H](n2c(Nc3ccc(OC(F)(F)F)cc3)nc3cc(-c4cnoc4)ccc32)CC(C)(C)C1 (stereo in doubt) [Example 2-9]
4300		Cc1cc(-c2ccc3c(c2)nc(Nc2ccc(OC(F)(F)F)cc2)n3[C@@H]2C[C@H](C)CC(C)(C)C2)n(C)n1 (stereo in doubt) [Example 2-12-1]
1600		Cc1cc(-c2ccc3c(c2)nc(Nc2ccc(OC(F)(F)F)cc2)n3[C@H]2C[C@@H](C)CC(C)(C)C2)n(C)n1 (stereo in doubt) [Example 2-12-2]
240		C[C@H]1C[C@@H](n2c(Nc3ccc(OC(F)(F)F)cc3)nc3cc(-c4cnn(C)c4)ccc32)CC(C)(C)C1 (stereo in doubt) [Example 2-13-1]
1000		C[C@@H]1C[C@H](n2c(Nc3ccc(OC(F)(F)F)cc3)nc3cc(-c4cnn(C)c4)ccc32)CC(C)(C)C1 (stereo in doubt) [Example 2-13-2]
1300		COc1cc(-c2ccc3c(c2)nc(Nc2ccc(OC(F)(F)F)cc2)n3[C@@H]2C[C@H](C)CC(C)(C)C2)ccn1 (stereo in doubt) [Example 2-14]
7800		C[C@H]1C[C@@H](n2c(Nc3ccc(OC(F)(F)F)cc3)nc3cc(-c4cn(C)nc4C(F)(F)F)ccc32)CC(C)(C)C1 (stereo in doubt) [Example 2-16-1]
780		C[C@@H]1C[C@H](n2c(Nc3ccc(OC(F)(F)F)cc3)nc3cc(-c4cn(C)nc4C(F)(F)F)ccc32)CC(C)(C)C1 (stereo in doubt) [Example 2-16-2]
290		C[C@H]1C[C@@H](n2c(Nc3ccc(OC(F)(F)F)cc3)nc3cc(-c4cn(C)nc4C(F)(F)F)ccc32)CC(C)(C)C1 (stereo in doubt) [Example 2-16]
	4000	C[C@H]1C[C@@H](n2c(Nc3ccc(OC(F)(F)F)cc3)nc3cc(-c4ccnn4C)ccc32)CC(C)(C)C1 (stereo in doubt) [Example 2-20]
